Data: patent US10532084B2, “Chondrocyte extracellular matrix-derived peptide” (EYEBIO KOREA, priority 2016, dated 2020)
“Also recorded” adds a separate entry of the source.

Experiments:
[1] = test system: human vascular endothelial cells (HUVEC); assay: Tubing assay (VEGF-induced tube formation); type: cell-based; settings: 4 hours
Experimental: The antiangiogenic effect of hydroxy proline-GQDGLAGPK was confirmed by tubing assay using human vascular endothelial cells (HUVEC).
HUVEC cells were stained with calcein-AM and then dispensed on a Matrigel-coated 48-well plate, treated with collagen, CPI and CPII at concentrations together with 50 ng/ml of recombinant human VEGF, and after 4 hours of incubation at 37° C., tube formation was observed by fluorescence microscopy (Leica) and tube length was analyzed by Image lab software (Bio-Rad Laboratories).
Tubing assay using human vascular endothelial cells (HUVEC) was performed to confirm the anti-angiogenic effect of hydroxyl proline-GQDGLAGPK.

corneal surface = assay: Corneal surface irregularity (smoothness) score, dry eye model; type: in vivo, NOD.B10.H2b mice
Experimental: NOD.B10.H2^b mice were purchased from Jackson Laboratory (Bar Harbor, Me., USA). Animal experiments were carried out in accordance with the guidelines approved by the University of Inje (No.; 2014-029) and ARVO regarding animal use for eye and vision research. NOD.B10.H2^b mice at 12-16 weeks old were exposed to 40-50% ambient humidity and ventilation using a fan for 18 hours a day as dry stress and subcutaneously injected with 0.5 mg/0.2 mL muscarinic receptor blocker. In addition, scopolamine hydrobromide (Sigma-Aldrich, St. Louis, Mo.) was injected alternately to the […] hips four times a day for 10 days at 9 am, […].
After 10 days of ocular dry stress, the scopolamine injection was stopped, and switched to a normal humidity and temperature environment and the dry stress was removed, 10 mg/ml Hyp-[…] and collagen were dissolved in normal saline to administer 5 μL each 5 times a day for 10 days, and normal saline and 0.1% HA were administered to the eyeball 5 times a day for 10 days. Three mice were used in each of the six experimental groups using both eyes of the mice and all experiments were repeated.
As for the curvature of the corneal surface, a reflected image of the white ring was obtained from an optical fiber ring illumination of a stereoscopic microscope (SZX7; Olympus) after anesthetizing the animal. Corneal smoothness was assessed by grading the irregularity of corneal epithelial cells reflected in the white ring of the digital image. Corneal irregularity severity score was calculated by dividing the reflection ring into quadrants and grading into 5 grades according to degree of irregularity. No irregularity is grade 0, irregularity of ¼ (quarter) is grade 1; irregularity of 2/4 (two-quarters) is grade 2; irregularity of ¾ (three-quarters) is grade 3; entire irregularity is grade 4; and […] and thus all the rings were confirmed.
The degree of corneal curvature in each experiment group was quantified to confirm the bendability of the corneal surface.

[2] = test system: rabbit cornea burned with alkali; settings: rabbit alkaline burn
Experimental: (§1) The rabbits were randomly divided into an alkaline burn group (n=5) and a peptide treated group (n=5). In the alkaline burn group, normal saline was administered 4 times daily and in the peptide-treated group, Hyp-[…] peptide of 10 mg/mL was administered 4 times daily, and the left eye was used as a control group.

CD31, FGF and VEGF = settings: rabbit alkaline burn; 10 days treatment; immunostaining
Experimental: as §1
(§2) Tissue sections were cut into 6 μm thickness and used for immunohistochemical analysis.
(§3) First, tissue sections were fixed with 3.5% paraformaldehyde and permeated with 0.1% Triton X-100, inactivated 2% bovine serum albumin (BSA; all from Sigma, St. Louis, Mo.) and incubated overnight at 4° C. with anti-CD31(1:1,000; Abcam Inc., Cambridge, Mass.), anti-bFGF(1:1,000; Bioss Inc., Woburn, Mass.), anti-IL-1β, anti-IL-6(1:1,000; Cloud-Clone Corp., Houston, Tex.), anti-MMP-9, anti-ICMA-1, anti-TNFα, anti-macrophage/mononucleus (1:1,000; Abnova Crop., Taipei, Taiwan) and anti-VEGF-A (Abbiotec, San Diego, Calif.) primary antibody.
(§4) Thereafter, the secondary antibody was incubated for 45 minutes in the section and the immunological response was visualized with diaminobenzidine (DAB) chromogen, and the section was contrast-stained with Mayer's hematoxylin (Sigma) for 30 seconds at room temperature.
(§5) The dyed sections were photographed by a virtual microscope (NanoZoomer 2.0 RS, Hamamatsu, Japan).

[3] = test system: macrophages, TNFα, ICAM-1, IL-1β, IL-6 and MMP-9; settings: rabbit alkaline burn; 10 days treatment; immunostaining
Experimental: as §1, §2, §3, §4, §5

[4] = test system: choroidal neovascularization (CNV); assay: Laser-induced choroidal neovascularization (CNV), lesion size by retina-choroid flat-mount; type: in vivo, C57BL/6 mice; settings: mouse, laser irradiation
Experimental: C57BL/6 mice were purchased from Orient Bio and the animal experiments was carried out in accordance with the guidelines approved by the University of Inje (No, 2013-053) and ARVO regarding animal use for eye and vision studies. 6-week-old C57BL/6 mice were treated with diode green laser (532 nm, 150 mW, 0.1 sec, […], photocoagulator) to damage the retinal optic nerve area. […] The above experiment for each experiment group was performed using both eyes of five mice each. […]
The mouse was anesthetized and injected with 25 mg/ml of FITC-dextran in […] of retro-orbital. After 30 minutes, the mouse was euthanized and the eyeball was extracted and fixed with 10% formalin and then, the cornea and lens were removed and flat mounted on the cover glass. The neovasculature stained with FITC-dextran was observed by fluorescence microscopy (Leica) and the lesion size was measured by Image J program. […]

[5] = Tear amount by phenol red-impregnated cotton threads, dry eye model; type: in vivo, NOD.B10.H2b mice
Experimental: Tear production was measured by a method reported using phenol red-impregnated cotton threads (Zone-Quick, Oasis, Glendora, Calif.) (Villareal A L, Farley W, Pflugfelder S C. Effect of topical ophthalmic epinastine and olopatadine on tear volume in mice. Eye Contact Lens. 2006; 32 (6): 272-276.). […] The measured lachrymal fluid in the millimeter was compared with a standard curve expressed as a cotton thread which was soaked with the expected tear amount of mouse of basic solution ([…] of 0.9% salt and 5 mL of 5 N NaOH) for 20 seconds.
The degree of tear generation was measured by phenol red-impregnated cotton threads.

hydroxy proline-GQDGLAGPK [Hyp-GQDGLAGPK]
concentration dependence of tube formation inhibition ([1]; 50 ng/ml VEGF): concentration-dependent manner
tube formation compared with the VEGF-untreated group ([1]; 50 ng/ml VEGF): decreased to almost same extent of angiogenesis of the VEGF-untreated group
inhibition of tube formation (angiogenesis) ([1]; 50 ng/ml recombinant human VEGF, listed as CPII): significant inhibition of angiogenesis; also recorded: best anti-angiogenic efficacy; also recorded: best anti-angiogenic ability
decrease of corneal surface curvature score vs CsA group (corneal surface; day 10): 40%
decrease of corneal surface curvature score vs DQS group (corneal surface; day 10): 33.3%
decrease of corneal surface curvature score vs HA group (corneal surface; day 10): 33.3%
decrease of corneal surface curvature score vs collagen group (corneal surface; day 10): 45.5%
decrease of corneal surface curvature score vs normal saline group (corneal surface; day 10): 40%
decrease of corneal surface curvature score vs dry stress (DS 10D) (corneal surface; day 10 after removal of dry stress): 53.8%
degree of curvature (irregularity score) of the corneal surface (corneal surface; day 10 after removal of dry stress, grades 0-5, normal 0.33±0.58, DS 10D 4.33±0.58): 2.0±0 points
corneal neovascularization in H&E stained tissue ([2]; 10 days treatment): neovascularization was significantly improved
histological changes of the cornea (epithelial proliferation, inflammatory cell invasion, edema, neovascularization) ([2]; 10 days treatment, H&E): showed an advanced improvement effect
corneal thickness ([2]; after 10 days of peptide treatment, normal 526.6, alkaline burn 960.6): 550.0 μm
expression of CD31, FGF and VEGF in epithelium, subepithelium and matrix (CD31, FGF and VEGF): significant decreases
expression of MMP-9 in the cornea [3]: inhibited
expression of inflammatory factors TNFα, IL-1β, IL-6 and ICAM-1 [3]: decreased
expression of macrophages in the cornea [3]: effectively inhibited
CNV lesions ([4]; 2 μg intraocular injection for 5 days, listed as CPII): reduced; also recorded: decreased
CNV lesion size vs control group ([4]; 5 μg intraocularly for 5 consecutive days, 14 days after laser, FITC-dextran flat-mount): significantly decreased
tear amount increase vs DS 10D group ([5]; 10 days after treatment): 7.9 times
tear amount relative to CsA treatment group ([5]; 10 days after treatment): 1.7 times
tear amount relative to DQS treatment group ([5]; 10 days after treatment): 1.4 times
tear amount relative to HA treatment group ([5]; 10 days after treatment): 1.6 times
tear amount relative to collagen positive control group ([5]; 10 days after treatment): about 1.7 times
tear amount relative to normal saline negative control group ([5]; 10 days after treatment): about 2.8 times
tear amount ([5]; 10 days of treatment after removal of dry stress, normal 0.22±0.01, DS 10D 0.03±0.01): 0.23 ± 0.02 µL
